# Measurements taken from patent US20240423964A1, “METHODS AND COMPOSITIONS FOR IMPROVING NEUROMUSCULAR JUNCTION MORPHOLOGY AND FUNCTION” (The Board of Trustees of the Leland Stanford Junior …, priority 2021, published 2024).
# Entries after “also recorded” stand apart in the source; their conditions may differ.
# Key:
# aged mice [1] = assay: Aged mice treated systemically with SW033291 for one month: muscle PGE2 levels, muscle mass and force; format: in vivo, mouse; details: systemic treatment for one month
# Text: The prostaglandin E2 catabolizing enzyme, 15-hydroxyprostaglandin dehydrogenase (15-PGDH), is a pivotal regulator of muscle aging and that its inhibition leads to a marked increase in muscle mass and strength in aged mice^1. 15-PGDH is a nicotinamide adenine dinucleotide (NAD+) dependent enzyme that increases with aging in muscle and catabolizes PGE2. FIGS. 1A-1B show increased 15-PGDH activity along with PGE2 levels, and these are reduced in aged mouse muscle. […] Strikingly, overexpression of 15-PGDH in young mouse muscles leads to loss of muscle mass and strength after just one month^1. […]
# Plantar flexion peak isometric torque (N·mm) was measured in mice as described previously (2, 42, 43). […] Data were analyzed using Aurora Scientific Dynamic Muscle Analysis Software Suite. Force was measured longitudinally in mice undergoing unilateral sciatic nerve crush injury on days 3, 7, and 14 post-injury. Peak tetanic force generated by contralateral uninjured legs was measured in all experimental mice at all time points.
# Prostaglandins, PGE2, PGD2, and PGF2a, and PGE2 metabolites, 15-keto PGE2 and 13,14-dihydro-15-keto PGE2 (PGEM), were measured as described previously (2). Briefly, tissues were snap frozen in liquid nitrogen upon dissection and were kept for no more than 2 weeks in −80° C. freezer before processing for prostaglandin quantification using LC-MS/MS. […]
# aged mice [2] = assay: NMJ morphology in EDL muscles of aged mice (whole-mount staining, confocal microscopy); format: in vivo, mouse
# Procedure: (§1) Mice were treated for 1 month once a day intraperitoneally with 5 mg/kg of SW033291 (SW) or vehicle (10% ethanol, 5% Cremophor EL, and 85% D5W (5% (wt/v) dextrose in water, Tables 3 and 4)) as previously described (2). Vehicle and SW treatments were performed in seven independent experiments for aging studies that included young and aged vehicle- and SW-treated groups. Mice were randomized based on their body weight into vehicle-treated control and SW-treated experimental groups prior to the start of injections. A full-body necropsy was performed on all mice at the experimental endpoint and mice that developed tumors were excluded from the study.
# Extensor digitorum longus (EDL) and soleus muscles were dissected and fixed in 4% PFA in PBS for 30 minutes at room temperature. Muscles were washed in PBS extensively and stored in PBS with 0.01% sodium azide (Sigma. S2002) at 4 C until processed. For whole-mount staining, EDLs were separated using the distal tendon into 4 pieces to make thinner sheets of muscles for staining. The proximal and distal tendons of either soleus or EDL pieces were removed to allow for teasing thin bundles of muscle fibers using fine forceps under a stereomicroscope. Care was given in handling tissues to avoid touching the end plate band with forceps tips. Next, myofiber bundles were incubated in PBS-T (0.3% Triton X-100 in PBS) for 1 hour and were blocked in blocking solution (5% goat serum and 0.3% Triton X-100 in PBS) supplemented with 1:50 dilution of goat anti-mouse IgG (Jackson ImmunoResearch, 115-007-003) and IgM (Jackson ImmunoResearch, 115-007-020) for 1 hour at room temperature. Tissues were then incubated with a primary antibody mix against neurofilament and synaptic vesicle (2H3 and SV, DSHB) at 5 μg/ml for a minimum of 24 hours at 4 C with gentle shaking. Tissues were then rinsed with PBS-T and incubated with a secondary antibody mix (goat anti-mouse IgG1-Cy™3, Bungarotoxin-AF™647, and Hoechst 33342) diluted in blocking solution overnight at 4° C. with gentle shaking. Tissues were washed extensively with PBS and mounted in Fluoromount-G™ mounting medium (Southern Biotech, 0100-01) and left overnight to equilibrate prior to confocal microscopy.
# (§2) Confocal images were acquired on a Marianas spinning disk confocal (SDC) microscopy with Intelligent Imaging Innovations software using a 20×/NA 0.75 or an oil immersion 40×/NA 0.9 objective to capture multiple focal planes at a step size of 1 μm. Images acquired using the 20× objective were analyzed to score denervation, axonal swelling, and fragmentation of AChRs. Images acquired with the oil immersion 40× objective were analyzed to quantity NMJ-associated endolysosomal vesicles stained with α-bungarotoxin-AF647. Maximum intensity projection images were created from confocal slices using NIH ImageJ software. Data acquisition and NMJ scoring were performed by two researchers blinded to treatment conditions.
# [3] = test system: mice undergoing unilateral sciatic nerve crush; assay: Sciatic nerve crush: NMJ denervation in ipsilateral EDL muscles (immunofluorescence); format: in vivo, mouse; details: 14 dpi, daily intraperitoneal treatment, compared to vehicle-treated controls
# Procedure: (§3) Nerve injury was induced as described below. Mice were treated with SW or vehicle as control intraperitoneally once daily for 14 days post-injury as described above.
# The sciatic nerve crush surgery was adopted from the protocol described previously by Bauder and Ferguson (41). The crush surgery was performed as described above with the following modifications. After locating the sciatic nerve, the nerve was mobilized gently with sharp sticks for easy access with hemostatic forceps (Fine Science Tools, 13020-12). Next, the nerve was gently placed on the bottom jaw of the forceps and was crushed for 15 seconds at 3 clicks of the forceps (first location of the locking handle). The incision was closed using 7 mm autoclaved reflex clips (World Precision Instruments, 500344; Applier: 500345). Mice were monitored for recovery from anesthesia and then returned to their home cages. […]
# as §2, with “Maximum intensity projection images were created from confocal slices using NIH ImageJ software. Data acquisition and NMJ scoring were performed by two researchers blinded to treatment conditions.” left out
# [4] = test system: mice undergoing unilateral sciatic nerve crush; assay: Sciatic nerve crush: plantar flexion tetanic force by nerve stimulation; format: in vivo, mouse
# Procedure: as §3
# (§4) The sciatic nerve crush surgery was adopted from the protocol described previously by Bauder and Ferguson (41). The crush surgery was performed as described above with the following modifications. After locating the sciatic nerve, the nerve was mobilized gently with sharp sticks for easy access with hemostatic forceps (Fine Science Tools, 13020-12). Next, the nerve was gently placed on the bottom jaw of the forceps and was crushed for 15 seconds at 3 clicks of the forceps (first location of the locking handle). The incision was closed using 7 mm autoclaved reflex clips (World Precision Instruments, 500344; Applier: 500345). Mice were monitored for recovery from anesthesia and then returned to their home cages.
# Plantar flexion peak isometric torque (N·mm) was measured in mice as described previously (2, 42, 43). Briefly, mice were anesthetized with 3% isoflurane mixed with oxygen and legs were shaved from ankle to hip to allow for reproducible access to the tibial nerve. The foot was taped to a footplate attached to a servomotor (Aurora Scientific, 300C-LR) and the knee joint was secured to a fixed steel post. Contractions were elicited by percutaneous electrical stimulation of the tibial nerve by inserting two Pt—Ir electrode needles (Aurora Scientific) posterior to the knee joint. The peak isometric torque was achieved by injecting 0.4 mA current to the tibial nerve at a frequency of 150 Hz and 0.1 ms square wave pulse. Three tetanic measurements were performed on each muscle, with 1 minute recovery between each measurement, and chose the highest value. Force measurement acquisition was blinded and the researcher performing the force measurements was unaware of treatment conditions. Data were analyzed using Aurora Scientific Dynamic Muscle Analysis Software Suite. Force was measured longitudinally in mice undergoing unilateral sciatic nerve crush injury on days 3, 7, and 14 post-injury. Peak tetanic force generated by contralateral uninjured legs was measured in all experimental mice at all time points.
# [5] = test system: mice undergoing unilateral sciatic nerve crush; assay: Sciatic nerve crush: body weight and gastrocnemius/soleus muscle weight; format: in vivo, mouse
# Procedure: as §3, §4
# aged mice [6] = assay: Motor neuron apoptosis: cleaved caspase-3 in ChAT+ neurons of the lumbar spinal cord of aged mice; format: in vivo, mouse; details: ChAT+ neurons in ventral horn of lumbar spinal cord
# Procedure: as §1
# Spinal cords were harvested as previously described using hydraulic extrusion of the entire intact spinal cord. Briefly, mice were euthanized with carbon dioxide and decapitated using scissors caudally to the brain stem. The spinal columns were severed just caudal to the sacral spinal cord. A blunt 25-gauge syringe containing ice-cold PBS was inserted into the caudal end of the spinal cord to hydraulicly extrude the entire cord in a petri0dish with ice-cold PBS. The lumbar region was identified under a stereomicroscope, dissected with a sharp blade, and fixed overnight at 4 C in 4% PFA in phosphate buffer. Fixed lumbar spinal cords were embedded in O.C.T. and were frozen in liquid-nitrogen-cooled isopentane. […]
# aged mice [7] = assay: Electron microscopy of motor neuron-associated mitochondria in EDL axons of aged mice; format: in vivo, mouse; details: one month of treatment, listed as SW
# Procedure: as §1
# Extensor digitorum longus (EDL) muscles were dissected and pinned by proximal and distal tendons to the bottom of a petri-dish coated with silicone rubber. Tissues fixed in 2% Glutaraldehyde (Electron Microscopy Sciences, 16000) and 4% paraformaldehyde (Electron Microscopy Sciences, 15700) in 0.1M sodium cacodylate (Electron Microscopy Sciences, 12300) pH 7.4 for 24 hours. Tissues were then transferred from petri-dishes to microcentrifuge tubes with 1% Osmium tetroxide (Electron Microscopy Sciences, 19100) and were kept at room temperature for 1 hour with gentle rotation. […] Images were quantified by an individual blinded to experimental conditions in ImageJ.
# 15-PGDH = 15-PGDH (Mus musculus, UniProt Q8VCC1); details: in vivo; cited from earlier work
# [8] = aged mice, one month of intraperitoneal administration
# [9] = geriatric mice (>26 months), one month once daily i.p., EDL
# Chain of 15-PGDH (Q8VCC1 whole entry): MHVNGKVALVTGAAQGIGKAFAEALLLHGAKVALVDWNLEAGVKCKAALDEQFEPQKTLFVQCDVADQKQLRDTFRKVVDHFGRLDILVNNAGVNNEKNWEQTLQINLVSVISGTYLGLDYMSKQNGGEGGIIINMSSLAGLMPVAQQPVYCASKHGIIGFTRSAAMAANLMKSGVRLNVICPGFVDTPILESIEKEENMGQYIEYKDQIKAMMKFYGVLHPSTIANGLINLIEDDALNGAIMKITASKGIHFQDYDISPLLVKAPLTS
smiles,measurement,setting,value
"CCCC[S+]([O-])c1sc2nc(-c3cccs3)cc(-c3ccccc3)c2c1N (centres unmarked) [SW033291, 2-(butylsulfinyl)-4-phenyl-6-(thiophen-2-yl)thieno[2,3-b]pyridin-3-amine]",increase in muscle mass and force,aged mice [1],15-20%
same,muscle PGE2 levels,aged mice [1],to the physiological levels measured in young mice
same,morphology of the AChRs,aged mice [2]; [8],"improves, enhances, and/or rejuvenates the intact morphology of the AChRs"
same,number of AChR rich endo/lysosomal vesicles,aged mice [2]; [8],striking reduction
same,number of AChR rich endo/lysosomal vesicles,"aged mice [2]; aged mice, one month of intraperitoneal administration, listed as SW",reduces
same,aged NMJ morphology,aged mice [2]; [9],"improved, enhanced, and/or rejuvenated to branched and pretzel-like structures found in young EDLs"
same,incidence of AChR fragmentation,aged mice [2]; [9],significantly reduced
same,incidence of motor neuron axonal swelling,aged mice [2]; [9],significantly reduced
same,rate of denervation in aged EDLs,"aged mice [2]; geriatric mice (>26 months), one month once daily i.p., mean±S.E.M.",12.4±2.9
same,denervation rates in EDLs ipsilateral to the nerve crush,[3],significantly reduced
same,"tetanic plantar flexor force in the injured leg, difference between vehicle and SW",[4]; 3 dpi until 7 dpi,no differences between the experimental groups
same,"plantar flexion force of the contralateral (uninjured) legs, difference between vehicle and SW","[4]; contralateral control legs, listed as SW",no significant differences
same,increase in specific force (force normalized to gastrocnemius and soleus weight),"[4]; mean±S.D., compared to vehicle-treated control mice, 14 days post nerve crush",52±10%
same,increase in plantar flexion force generation in injured legs,"[4]; mean±S.D., daily intraperitoneal treatment after nerve crush",69±8%
same,muscle mass in injured legs,"[5]; 14 dpi, gastrocnemius and soleus",significant increase
same,"muscle weight of the contralateral control legs, difference between vehicle and SW treatment","[5]; contralateral control legs, 14 days post nerve crush",No differences
same,"animals body weight, difference between vehicle and SW treatment",[5]; nerve crush model,No differences
same,activated caspase-3 in aged lumbar motor neurons (apoptosis),aged mice [6],lower levels
same,mitochondrial morphology in motor neurons (distal axons / heavily myelinated axons of EDL),aged mice [7],"improvement, enhancement, and/or rejuvenation of mitochondrial morphology; also recorded: improved, enhanced, and/or rejuvenated to compact circular mitochondria morphology resembling that seen in young"
same,"catabolic regulators of muscle atrophy such as atrogenes, ubiquitin ligases MuRF1 (Trim63) and Fbxo32, and TGF-beta signaling",15-PGDH,reduction
